This note sets out measurements from US8586082B2, “Solid orally administerable pharmaceutical dosage forms with rapid active principle release” (Bayer Intellectual Property GmbH, priority 2005, dated 2013).

A short description of data set [1]: In vitro release, USP apparatus 2 (paddle), non-sink conditions (supersaturation). Type of data set: physicochemical. Particulars: 75 rpm, 900 ml acetate buffer pH 4.5, 37° C., active ingredient dose 20 mg. The procedure:
The in vitro release investigations are carried out by USP release method with apparatus 2 (paddle) at a temperature of 37° C. The speed of rotation of the stirrer is 75 rpm (revolutions per minute) in 900 ml of an acetate buffer solution of pH 4.5, which is prepared from 29.9 g of sodium acetate trihydrate and 16.6 ml of glacial acetic acid in 10 l of water.
The investigations in this connection take place under sink or non-sink conditions.
Non-sink conditions: The investigations for examining the supersaturation (increase in solubility) take place without addition of a surfactant and with a dose of 20 mg of active ingredient (I) to be released.
To illustrate the supersaturation behaviour of exemplary formulations 1 to 6 (see below), as comparison the in vitro release (non-sink conditions) of the micronized crystalline active ingredient (I) in the thermodynamically stable crystal modification I and of a rapid-release tablet formulation produced by fluidized bed granulation and comprising micronized crystalline active ingredient (I) in crystal modification I were determined.

Data set [2] is described as follows: Bioavailability, comparative study in rats (3 mg/kg). In kind it is in vivo. Particulars: male Wistar rats, suspension, geometric means. The procedure: The bioavailability was investigated by administering 3 mg/kg active ingredient (I) in each case to male Wistar rats: • a) in the form of exemplary formulation 1 (suspended in water) • b) in the form of exemplary formulation 2 (suspended in water) • c) in the form of exemplary formulation 3 (suspended in water) • d) in the form of the micronized crystalline active ingredient in thermodynamically stable crystal modification I (suspended in 0.5% strength aqueous methylhydroxyethylcellulose (proprietary name: Tylose MH 300))

Data set [3] is described as follows: Bioavailability, comparative study in dogs (150 mg/kg). In kind it is in vivo. Particulars: Beagle dogs, crossover, suspension, geometric means.
Data set [4] in a line: Solubility in water of active ingredient (I). In kind it is physicochemical. Particulars: 25° C., crystal modification I.

In brackets after ≈: the same amount, converted by molar mass.

What is called Cmax is the maximum level reached in the sampled fluid or tissue. With `O=C(NC[C@H]1CN(c2ccc(N3CCOCC3=O)cc2)C(=O)O1)c1ccc(Cl)s1` [Comparative Formulation 1.1, 5-Chloro-N-({(5S)-2-oxo-3-[4-(3-oxo-4-morpholinyl)phenyl]-1,3-oxazolidin-5-yl}methyl)-2-thiophenecarboxamide], the Release in data set [1] (15 min) is given as 23%; in data set [1] (30 min), 34%; in data set [1] (60 min) it was 41%; in data set [1] (90 min), 44%. The “AUC (0-24)norm” value was 0.254 kg·h/L in data set [2] and 0.081 kg·h/L in data set [3]. Besides, the figures for the “Cmax, norm” value in data set [2] and in data set [3] were 0.074 kg/L and 0.015 kg/L, respectively. Further, the Cmax in data set [2] (rat, in vivo, oral) amounted to 222 ng/mL; in data set [3] (dog, in vivo, oral), 2220 ng/mL. Further, the AUC(0-t) was found to be 762 ng·h/mL in data set [2] (rat, in vivo, oral, read-out: AUC (0-24)) and 12200 ng·h/mL in data set [3] (dog, in vivo, oral, read-out: AUC (0-24)).
Usually solubility stands for the dissolved amount per volume that the medium holds. High values mean much dissolved substance, low ones little dissolved substance. For `O=C(NC[C@H]1CN(c2ccc(N3CCOCC3=O)cc2)C(=O)O1)c1ccc(Cl)s1` [active ingredient (I), 5-Chloro-N-({(5S)-2-oxo-3-[4-(3-oxo-4-morpholinyl)phenyl]-1,3-oxazolidin-5-yl}methyl)-2-thiophenecarboxamide], the solubility in data set [4] is around 7 µg/mL (≈ 16.1 µM).
